Data published in patent publication US10188634B2, “3-(3H-imidazo[4,5-C]pyridin-2-yl)-1 H-pyrazolo[4,3-B]pyridines and therapeutic uses thereof” (Samumed, LLC, priority 2015, dated 2019).

Key:
Type in all cases: cell-based
IL-6 in THP-1 cells = test: Inhibition of IL-6 in LPS-stimulated THP-1 human monocyte cells (HTRF); details: IL-6 HTRF; for EC50: 500 ng/mL LPS, 22 hours; for inhibition at 10 µM: LPS, read-out: percent inhibition in brackets (given for EC50 >10 μM)
Summary of the method: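 IL-6 was quantified by HTRF ratio after LPS (500 ng/mL, 22 h) stimulation of THP-1 monocytes pretreated 2 h with compound, 10-point 1:3 dilutions from 10 μM, 0.1% DMSO. Cells were held in 1% FBS for 24 h beforehand. Values normalised to DMSO; four-parameter EC50, or % inhibition at 10 μM above that.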

[1] = system: LL29 cells (primary human fibroblasts derived from IPF patients) treated with TGF-β1, α-smooth muscle actin; test: Inhibition of the fibrotic process: αSMA staining in TGF-β1 treated primary human fibroblasts from IPF patients (LL29 cells); details: Fibroblast, 96 h; for EC50: LL29 cells treated with TGF-β1 (20 ng/mL), 4 days; for inhibition at 10 µM: LL29 cells treated with TGF-β1, 4 days, read-out: percent inhibition in brackets (given for EC50 >10 μM)
SW480 colon cancer cells = test: Cell viability assay (CellTiter-Blue) in SW480 colon cancer cells; details: Homo sapiens, 96 h; for inhibition at 10 µM: four days, CellTiter-Blue, read-out: percent inhibition at 10 μM (given for EC50 of >10 μM); for EC50: four days incubation, CellTiter-Blue cell viability
Summary of the method: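 Four-day exposure of SW480 cells (~2×10^3/well) to compound from 10 μM down to 0.004 μM in 1:3 steps, in duplicate. Resorufin fluorescence from CellTiter-Blue after ~3 h served as the viability read-out. EC50 values came from nonlinear curve fits, with % inhibition at 10 μM given where EC50 >10 μM.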

SMILES | EC50 (IL-6 in THP-1 cells) | EC50 (SW480 colon cancer cells) | inhibition at 10 µM (IL-6 in THP-1 cells) | EC50 [1] | inhibition at 10 µM [1] | inhibition at 10 µM (SW480 colon cancer cells)
Cc1ccncc1-c1ccc2[nH]nc(-c3nc4c(-c5ccncc5)cncc4[nH]3)c2n1 [Compound 117, 5-(4-Methylpyridin-3-yl)-3-(7-(pyridin-4-yl)-3H-imidazo[4,5-c]pyridin-2-yl)-1H-pyrazolo[4,3-b]pyridine] | > 10 µM | > 10 µM | 43.5% | > 10 µM | 0% | 2.8%
CCCC(=O)Nc1cncc(-c2ccc3[nH]nc(-c4nc5c(-c6ccncc6)cncc5[nH]4)c3n2)c1 [Compound 129, N-(5-(3-(7-(Pyridin-4-yl)-3H-imidazo[4,5-c]pyridin-2-yl)-1H-pyrazolo[4,3-b]pyridin-5-yl)pyridin-3-yl)butyramide] | > 1 µM | > 10 µM | 18.7% | > 10 µM | 0% | 2.8%
c1cc(-c2ccc3[nH]nc(-c4nc5c(-c6ccncc6)cncc5[nH]4)c3n2)ccn1 [Compound 130, 5-(pyridin-4-yl)-3-(7-(pyridin-4-yl)-3H-imidazo[4,5-c]pyridin-2-yl)-1H-pyrazolo[4,3-b]pyridine] | > 10 µM | > 10 µM | 29.3% | > 10 µM | 11% | 0%
O=C(Nc1cncc(-c2ccc3[nH]nc(-c4nc5c(-c6ccncc6)cncc5[nH]4)c3n2)c1)C1CCCCC1 [Compound 135, N-(5-(3-(7-(pyridin-4-yl)-3H-imidazo[4,5-c]pyridin-2-yl)-1H-pyrazolo[4,3-b]pyridin-5-yl)pyridin-3-yl)cyclohexanecarboxamide] | > 1 µM | > 10 µM | 26.6% | > 10 µM | 0% | 1.4%
CCNCc1cncc(-c2ccc3[nH]nc(-c4nc5c(-c6ccccn6)cncc5[nH]4)c3n2)c1 [Compound 146, N-((5-(3-(7-(Pyridin-2-yl)-3H-imidazo[4,5-c]pyridin-2-yl)-1H-pyrazolo[4,3-b]pyridin-5-yl)pyridin-3-yl)methyl)ethanamine] | > 10 µM | > 10 µM | 20.1% | 1.86 µM |  | 26.9%
O=C(Nc1cncc(-c2ccc3[nH]nc(-c4nc5c(-c6ccccn6)cncc5[nH]4)c3n2)c1)c1ccccc1 [Compound 151, N-(5-(3-(7-(Pyridin-2-yl)-3H-imidazo[4,5-c]pyridin-2-yl)-1H-pyrazolo[4,3-b]pyridin-5-yl)pyridin-3-yl)benzamide] | > 10 µM | > 10 µM | 20.3% | > 10 µM | 38.8% | 16.9%
CCCCC(=O)Nc1cncc(-c2ccc3[nH]nc(-c4nc5c(-c6ccccn6)cncc5[nH]4)c3n2)c1 [Compound 159, N-(5-(3-(7-(Pyridin-2-yl)-3H-imidazo[4,5-c]pyridin-2-yl)-1H-pyrazolo[4,3-b]pyridin-5-yl)pyridin-3-yl)pentanamide] | > 10 µM | > 10 µM | 28.2% | > 10 µM | 0.4% | 9%
CCC(=O)Nc1cncc(-c2ccc3[nH]nc(-c4nc5c(N6CCCCC6)cncc5[nH]4)c3n2)c1 [Compound 169, N-(5-(3-(7-(Piperidin-1-yl)-3H-imidazo[4,5-c]pyridin-2-yl)-1H-pyrazolo[4,3-b]pyridin-5-yl)pyridin-3-yl)propionamide] | > 10 µM | > 10 µM | 25.6% | > 10 µM | 3% | 2.2%
CN(C)Cc1cncc(-c2ccc3[nH]nc(-c4nc5c(N6CCCCC6)cncc5[nH]4)c3n2)c1 [Compound 181, N,N-Dimethyl-1-(5-(3-(7-(piperidin-1-yl)-3H-imidazo[4,5-c]pyridin-2-yl)-1H-pyrazolo[4,3-b]pyridin-5-yl)pyridin-3-yl)methanamine] | 6.01 µM | 7.75 µM |  | 8.03 µM |  | 
Cc1cn(-c2cncc3[nH]c(-c4n[nH]c5ccc(-c6cncc(NC(=O)CC(C)C)c6)nc45)nc23)cn1 [Compound 198, 3-Methyl-N-(5-(3-(7-(4-methyl-1H-imidazol-1-yl)-3H-imidazo[4,5-c]pyridin-2-yl)-1H-pyrazolo[4,3-b]pyridin-5-yl)pyridin-3-yl)butanamide] | > 10 µM | > 10 µM | 14.5% | > 10 µM | 0% | 4.2%
Cc1cn(-c2cncc3[nH]c(-c4n[nH]c5ccc(-c6cncc(NC(=O)C(C)(C)C)c6)nc45)nc23)cn1 [Compound 204, N-(5-(3-(7-(4-methyl-1H-imidazol-1-yl)-3H-imidazo[4,5-c]pyridin-2-yl)-1H-pyrazolo[4,3-b]pyridin-5-yl)pyridin-3-yl)pivalamide] | > 10 µM | > 10 µM | 24.5% | > 10 µM | 0% | 4.7%
Cc1cn(-c2cncc3[nH]c(-c4n[nH]c5ccc(-c6cncc(CN7CCCC7)c6)nc45)nc23)cn1 [Compound 210, 3-(7-(4-Methyl-1H-imidazol-1-yl)-3H-imidazo[4,5-c]pyridin-2-yl)-5-(5-(pyrrolidin-1-ylmethyl)pyridin-3-yl)-1H-pyrazolo[4,3-b]pyridine] | > 10 µM | > 10 µM | 13% | > 10 µM | 0% | 4%
Cc1cn(-c2cncc3[nH]c(-c4n[nH]c5ccc(-c6cncc(NC(=O)C7CCC7)c6)nc45)nc23)cn1 [Compound 217, N-(5-(3-(7-(4-Methyl-1H-imidazol-1-yl)-3H-imidazo[4,5-c]pyridin-2-yl)-1H-pyrazolo[4,3-b]pyridin-5-yl)pyridin-3-yl)cyclobutanecarboxamide] | > 10 µM | > 10 µM | 36.5% | > 10 µM | 18.8% | 0%

Second part, led by results:

EC50 (IL-6 in THP-1 cells) | EC50 (SW480 colon cancer cells) | SMILES | inhibition at 10 µM (IL-6 in THP-1 cells) | EC50 [1] | inhibition at 10 µM [1] | inhibition at 10 µM (SW480 colon cancer cells)
> 10 µM | > 10 µM | CN1CCN(c2cncc3[nH]c(-c4n[nH]c5ccc(-c6cncc(N)c6)nc45)nc23)CC1 [Compound 227, 5-(3-(7-(4-Methylpiperazin-1-yl)-3H-imidazo[4,5-c]pyridin-2-yl)-1H-pyrazolo[4,3-b]pyridin-5-yl)pyridin-3-amine] | 38% | 4.83 µM |  | 0%
> 10 µM | > 10 µM | CC(C)C(=O)Nc1cncc(-c2ccc3[nH]nc(-c4nc5c(N6CCN(C)CC6)cncc5[nH]4)c3n2)c1 [Compound 233, N-(5-(3-(7-(4-Methylpiperazin-1-yl)-3H-imidazo[4,5-c]pyridin-2-yl)-1H-pyrazolo[4,3-b]pyridin-5-yl)pyridin-3-yl)isobutyramide] | 36.7% | > 10 µM | 3.4% | 1%
> 10 µM | > 10 µM | CN1CCN(c2cncc3[nH]c(-c4n[nH]c5ccc(-c6cncc(NC(=O)C7CCCC7)c6)nc45)nc23)CC1 [Compound 246, N-(5-(3-(7-(4-Methylpiperazin-1-yl)-3H-imidazo[4,5-c]pyridin-2-yl)-1H-pyrazolo[4,3-b]pyridin-5-yl)pyridin-3-yl)cyclopentanecarboxamide] | 0% | > 10 µM | 48.7% | 1%
> 10 µM | > 10 µM | CN1CCN(c2cncc3[nH]c(-c4n[nH]c5ccc(-c6cncnc6)nc45)nc23)CC1 [Compound 251, 3-(7-(4-Methylpiperazin-1-yl)-3H-imidazo[4,5-c]pyridin-2-yl)-5-(pyrimidin-5-yl)-1H-pyrazolo[4,3-b]pyridine] | 31.8% | > 10 µM | 44.6% | 0%
> 10 µM | > 10 µM | O=C(Nc1cncc(-c2ccc3[nH]nc(-c4nc5c(-c6ccsc6)cncc5[nH]4)c3n2)c1)c1ccccc1 [Compound 263, N-(5-(3-(7-(Thiophen-3-yl)-3H-imidazo[4,5-c]pyridin-2-yl)-1H-pyrazolo[4,3-b]pyridin-5-yl)pyridin-3-yl)benzamide] | 36.3% | > 10 µM | 0% | 0.3%
> 10 µM | 2.13 µM | CCNCc1cncc(-c2ccc3[nH]nc(-c4nc5c(-c6ccoc6)cncc5[nH]4)c3n2)c1 [Compound 286, N-((5-(3-(7-(Furan-3-yl)-3H-imidazo[4,5-c]pyridin-2-yl)-1H-pyrazolo[4,3-b]pyridin-5-yl)pyridin-3-yl)methyl)ethanamine] | 14.5% | > 10 µM | 0% | 
> 10 µM | > 10 µM | CCCCC(=O)Nc1cncc(-c2ccc3[nH]nc(-c4nc5c(-c6ccoc6)cncc5[nH]4)c3n2)c1 [Compound 299, N-(5-(3-(7-(Furan-3-yl)-3H-imidazo[4,5-c]pyridin-2-yl)-1H-pyrazolo[4,3-b]pyridin-5-yl)pyridin-3-yl)pentanamide] | 48.6% | > 10 µM | 38.1% | 6.7%
